Our source for the IC50 values is patent publication US20250154145A1, “OXER1 ANTAGONISTS AND USES THEREOF” (Fairhaven Pharmaceuticals Ins., priority 2021, published 2025).

This experiment has as its system neutrophils. Description: Neutrophil calcium flux assay (5-OXO-ETE-stimulated, Indo-1 fluorescence). Type of experiment: cell-based. The settings on record: 5-OXO-ETE-stimulated calcium flux. The procedure, abridged:
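Indo-1-loaded neutrophils (5×10^6 cells/ml, 30 min at 37 °C) in HBSS with Ca/Mg and HEPES, pre-incubated 5 min with antagonist or buffer. Stimulated with 5-OXO-ETE added at 200 nM (4× stock); fluorescence (ex 331/em 410 nm) read every 5 s for 30 cycles, expressed as net fluorescence.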
For orientation: A change in cytosolic calcium serves as a functional read-out for many receptors and channels.

A value given as a limit tells only on which side of the number the result lay.

The term IC50 denotes the concentration needed to halve the response being measured. Regarding `Cn1c(CCCCCCCC#CC2CC(F)(F)C2)c(C(=O)N2CC[C@H](C(=O)O)C2)c2cc(C#N)cnc21` [Compound I-342], under “Neutrophil”, the IC50 was over 300 nM.
The same measure, in the same setting: the figure for `Cn1c(CCCCCCc2cccc(Cl)c2)c(C(=O)N2CC(C(=O)O)C2)c2cc(Cl)ccc21` [Compound I-151] is 100 to 300 nM.
As to `C[C@@H](CC(=O)O)CC(=O)c1c(CCCCCCC#CC2COC2)n(C)c2ccc(Cl)cc12` [Compound I-333], where the note is “Neutrophil”, the IC50 is over 300 nM.
On the same count and under the same terms, with `C[C@@H](CC(=O)O)CC(=O)c1c(CCCCOCc2cccc(Cl)c2)n(C)c2ccc(C#N)cc12` [Compound I-469] the figure was 100 to 300 nM; with `CC(CC(=O)O)CC(=O)c1c(CCCCCCc2cccc(C#N)c2)n(C)c2ncc(Cl)cc12` (centres unmarked) [Compound I-285], under 100 nM.
The same measure, in the same setting: with `Cn1c(CCCCCC(O)c2cccc(Cl)c2)c(C(=O)N2CC[C@H](C(=O)O)C2)c2cc(Cl)cnc21` (some centres unmarked) [Compound I-173] the figure was over 300 nM; with `C[C@H](CC(=O)O)CC(=O)c1c(COCCCCc2cccc(Cl)c2)n(C)c2ccc(Cl)cc12` [Compound I-63], under 100 nM.
As for `Cn1c(CCCCCCc2cccc(Cl)c2)c(C(=O)N2CC(C(=O)O)C2)c2cc(Cl)cnc21` [Compound I-153], the IC50 (Neutrophil) is over 300 nM.
Still for that read-out and setting: with `Cn1c(CCCCCCCC#CC2CC(F)(F)C2)c(C(=O)N2CC[C@H](C(=O)O)C2)c2cc(Br)cnc21` [Compound I-350] the figure was over 300 nM.
On to `CC(CC(=O)O)CC(=O)c1c(CCCCCC(O)c2cccc(C(=O)N(C)C)c2)n(C)c2ncc(C#N)cc12` (single isomer, unassigned) [Compound I-316], for which the IC50 is over 300 nM.
On to `C[C@H](CC(=O)O)CC(=O)c1c(CCCCOCc2ccccc2)n(C)c2ncc(Cl)cc12` [Compound I-99], for which the IC50 (Neutrophil) lay within 100 to 300 nM.
Regarding `C[C@@H](CC(=O)O)CC(=O)c1c(CCCCCCCC#CC2CC(F)(F)C2)n(C)c2ncc(C#N)cc12` [Compound I-336], the 50% inhibitory concentration (IC50) (Neutrophil) was over 300 nM.
With `CC(CC(=O)O)CC(=O)c1c(CCCCCC(O)c2cccc(C(=O)N(C)C)c2)n(C)c2ncc(C#N)cc12` (single isomer, unassigned) [Compound I-317], the half-maximal inhibitory concentration (IC50) was under 100 nM.
`Cn1c(CCCCOCc2cccc(Cl)c2)c(C(=O)N2CC[C@H](c3nnn[nH]3)C2)c2cc(C(F)(F)F)ccc21` [Compound I-188]: the IC50 (Neutrophil) was 100 to 300 nM.
The same measure, in the same setting: the figure for `CC(C)OCCCc1c(C(=O)C[C@H](C)CC(=O)O)c2cc(Cl)ccc2n1C` [Compound I-71] is over 300 nM; for `C[C@H](CC(=O)O)CC(=O)c1c(CCCCOCc2cccc(C#N)c2)n(C)c2cnc(Cl)cc12` [Compound I-404] it is under 100 nM.
Still for that read-out and setting: with `CC(CC(=O)NS(C)(=O)=O)CC(=O)c1c(CCCCOCc2cccc(Cl)c2)n(C)c2ccc(C#N)cc12` (centres unmarked) [Compound I-300] the figure was over 300 nM; with `C[C@H](CC(=O)O)CC(=O)c1c(CCCCCOc2cnccn2)n(C)c2ccc(Cl)cc12` [Compound I-132], over 300 nM; with `CC(CC(=O)NS(C)(=O)=O)CC(=O)c1c(CCCCOCc2ccccc2)n(C)c2ncc(C#N)cc12` (centres unmarked) [Compound I-362], over 300 nM.
Still for that read-out and setting: the figure for `C[C@H](CC(=O)O)CC(=O)c1c(CCCCCOCC#CC2CC(F)(F)C2)n(C)c2ccc(Cl)cc12` [Compound I-337] is under 100 nM; for `CC(CC(=O)O)CC(=O)c1c(CCOCCNc2ccccc2)n(C)c2ncc(C#N)cc12` (centres unmarked) [Compound I-289] it is 100 to 300 nM; for `CC(CC(=O)O)CC(=O)c1c(C[C@H]2CC[C@@H](OCc3cccc(Cl)c3)CC2)n(C)c2ncc(C#N)cc12` (some centres unmarked) [Compound I-399] it is over 300 nM.
In the case of `C[C@H](OCCCCc1c(C(=O)N2CC[C@H](C(=O)O)[C@H]2C)c2cc(C#N)cnc2n1C)c1ccccc1` [Compound I-454], the IC50 (Neutrophil) was over 300 nM.
The same measure, in the same setting: the figure for `CC(CC(=O)O)CC(=O)c1c(C2CCN(CCc3cccc(Cl)c3)CC2)n(C)c2ncc(C#N)cc12` (centres unmarked) [Compound I-295] is over 300 nM; for `CC(CN(C)C(=O)c1c(CCCCOCc2cccc(Cl)c2)n(C)c2ncc(C#N)cc12)C(=O)O` (centres unmarked) [Compound I-244] it is over 300 nM; for `C[C@@H](CC(=O)O)CC(=O)c1c(CCCCCCC#CC2CC(F)(F)C2)n(C)c2ncc(C#N)cc12` [Compound I-329] it is over 300 nM.
`CC(CC(=O)O)CC(=O)c1c(COCCOCc2cccc(Cl)c2)n(C)c2ccc(Cl)cc12` (centres unmarked) [Compound I-65]: the IC50 (Neutrophil) lay within 100 to 300 nM.
The same measure, in the same setting: with `CC(CC(=O)O)CC(=O)c1c(CCCCOCc2cccc(C(=O)N(C)C)c2)n(C)c2ncc(C#N)cc12` (centres unmarked) [Compound I-370] the figure was under 100 nM; with `Cn1c(CCCCOCc2cccc(Cl)c2)c(C(=O)N2CC[C@H](C(=O)O)C2)c2cc(C#N)cnc21` [Compound I-179], over 300 nM.
The same measure, in the same setting: the figure for `C[C@H](CC(=O)O)CC(=O)c1c(CCCCO[C@@H](C)c2ccccc2)n(C)c2ncc(C#N)cc12` [Compound I-432] is under 100 nM.
Still for that read-out and setting: the figure for `Cn1c(CCCCCCC#CC2CC(F)(F)C2)c(C(=O)N2CC[C@H](c3noc(=O)[nH]3)C2)c2cc(Br)cnc21` [Compound I-457] is over 300 nM.
As to `C[C@H](CC(=O)NCCS(=O)(=O)O)CC(=O)c1c(CCCCOCc2ccccc2)n(C)c2ncc(C#N)cc12` [Compound I-461], the IC50 (Neutrophil) is over 300 nM.
Same read-out and setting: the figure for `CC(C)COCCc1c(C(=O)C[C@H](C)CC(=O)O)c2cc(Cl)ccc2n1C` [Compound I-72] is over 300 nM.
`CC(CC(=O)O)CC(=O)c1c(CCCCCC(O)c2ccc(F)cc2)n(C)c2ncc(Cl)cc12` (centres unmarked) [Compound I-218]: under “Neutrophil”, the 50% inhibitory concentration (IC50) is over 300 nM.
Still for that read-out and setting: with `CC(CCC(=O)c1c(CCCCCCc2cccc(Cl)c2)n(C)c2ccc(Cl)cc12)C(=O)O` (centres unmarked) [Compound I-150] the figure was over 300 nM.
The same measure, in the same setting: the figure for `CC(C)[C@H](CC(=O)O)CC(=O)c1c(CCCCOCc2ccccc2)n(C)c2ncc(C#N)cc12` [Compound I-436] is over 300 nM.
The same measure, in the same setting: the figure for `C[C@H](CC(=O)O)CC(=O)c1c(CCCCOCc2cccc(OC(F)(F)F)c2)n(C)c2cnccc12` [Compound I-408] is under 100 nM; for `CC(CC(=O)O)CC(=O)c1c(CCCCOCc2cncnc2)n(C)c2ncc(C#N)cc12` (centres unmarked) [Compound I-388] it is over 300 nM.
On to `CC(CC(=O)O)CC(=O)c1c(CCCCOCc2cccc(C#N)c2)n(C)c2ncccc12` (centres unmarked) [Compound I-392], for which, for the setting “Neutrophil”, the 50% inhibitory concentration (IC50) lay within 100 to 300 nM.
Same read-out and setting: with `C[C@@H](CC(=O)NS(C)(=O)=O)CC(=O)c1c(CCCCCCc2cccc(Cl)c2)n(C)c2ccc(Cl)cc12` [Compound I-15] the figure was over 300 nM; with `CC(=O)N(C)c1cccc(C(O)CCCCCc2c(C(=O)CC(C)CC(=O)O)c3cc(C#N)cnc3n2C)c1` (centres unmarked) [Compound I-313], over 300 nM.
Still for that read-out and setting: with `CC(CC(=O)O)CC(=O)c1c(CCCCOCc2cccc(Cl)c2)n(C)c2nccc(Cl)c12` (centres unmarked) [Compound I-379] the figure was over 300 nM.
On the same count and under the same terms, with `CC(CC(=O)O)CC(=O)c1c(CCCCOCc2ccc(F)c(Cl)c2)n(C)c2ncc(C#N)cc12` (centres unmarked) [Compound I-291] the figure was under 100 nM; with `C[C@H](CC(=O)O)N(C)C(=O)c1c(CCCCCCc2cccc(Cl)c2)n(C)c2ccc(Cl)cc12` [Compound I-239], over 300 nM.
With `C[C@H](CC(=O)O)CC(=O)c1c(CCCCCNc2cccnc2)n(C)c2ccc(Cl)cc12` [Compound I-141], for the setting “Neutrophil”, the IC50 was over 300 nM.
Same read-out and setting: with `C[C@H](CC(=O)O)CC(=O)c1c(CCCCOCc2cccc(C#N)c2)n(C)c2nc(F)c(Cl)cc12` [Compound I-418] the figure was under 100 nM; with `C[C@H](CC(=O)O)CC(=O)c1c(CCCCc2nc3cc(Cl)ccc3o2)n(C)c2ccc(Cl)cc12` [Compound I-145], over 300 nM; with `COc1nccc(COCCCCc2c(C(=O)CC(C)CC(=O)O)c3cc(Cl)cnc3n2C)n1` (centres unmarked) [Compound I-448], over 300 nM.
On the same count and under the same terms, the figure for `CC(CC(=O)O)CC(=O)c1c(CCCCS(=O)(=O)Cc2ccccc2)n(C)c2ncc(C#N)cc12` (centres unmarked) [Compound I-428] is over 300 nM; for `CC(CC(=O)O)CC(=O)c1c(CCCCCC(O)c2cccc(C#N)c2)n(C)c2ncc(Cl)cc12` (centres unmarked) [Compound I-286] it is under 100 nM.
Still for that read-out and setting: the figure for `CC(CC(=O)O)CC(=O)c1c2cc(C#N)cnc2n(C)c1[C@H]1CC[C@H](COCc2cccc(Cl)c2)CC1` (some centres unmarked) [Compound I-401] is over 300 nM; for `Cn1c(CCCCCCc2cccc(Cl)c2)c(C(=O)N2CCC[C@@H](C(=O)O)C2)c2cc(Cl)ccc21` [Compound I-156] it is over 300 nM; for `Cn1c(CCCCCCc2cccc(Cl)c2)c(C(=O)N2CC(CC(=O)O)C2)c2cc(Cl)ccc21` [Compound I-152] it is over 300 nM.
Turning to `CC(CC(=O)O)CC(=O)c1c(CCCCCC(O)c2ccc(F)cc2)n(C)c2ncc(C#N)cc12` (centres unmarked) [Compound I-311], the half-inhibitory concentration (IC50) (Neutrophil) was over 300 nM.
Still for that read-out and setting: with `C[C@H](CC(=O)O)CC(=O)c1c(CCCCCNc2cccnc2)n(C)c2ncc(Cl)cc12` [Compound I-140] the figure was over 300 nM; with `C[C@H](CC(=O)O)CC(=O)c1c(CCOCCOc2cccc(Cl)c2)n(C)c2ccc(Cl)cc12` [Compound I-64], 100 to 300 nM; with `C[C@H](CC(=O)O)CC(=O)c1c(CCCCOCc2cccc(Cl)c2)[nH]c2ccc(Cl)cc12` [Compound I-189], 100 to 300 nM.
The same measure, in the same setting: with `CC(C)[C@@H](CC(=O)O)CC(=O)c1c(CCCCOCc2ccccc2)n(C)c2ncc(C#N)cc12` [Compound I-437] the figure was over 300 nM.
Still for that read-out and setting: the figure for `C[C@H](CC(=O)O)CC(=O)c1c(CCCCCN(C)c2ncccn2)n(C)c2ccc(Cl)cc12` [Compound I-124] is 100 to 300 nM; for `Cn1c(CCCCCCC#CC2CC(F)(F)C2)c(C(=O)N2CC[C@H](c3nnn[nH]3)C2)c2cc(C#N)cnc21` [Compound I-354] it is under 100 nM; for `Cn1c(CCCCCCC#CC2CC(F)(F)C2)c(C(=O)N2CC[C@H](C(=O)NS(=O)(=O)C(F)(F)F)C2)c2cc(C#N)cnc21` [Compound I-364] it is over 300 nM.
For `[2H]C([2H])([2H])n1c(CCCCOCc2cccc(Cl)c2)c(C(=O)C[C@H](C)CC(=O)O)c2cc(C#N)ccc21` [Compound I-421], the IC50 (Neutrophil) was under 100 nM.
